Test results published in patent publication US20250296953A1, “3,4-THIAZOLO-STEROIDS AND METHODS OF MAKING AND USING THE SAME” (Arkansas State University - Jonesboro, priority 2018, published 2025).
Read-outs that look alike come from different tables or passages of the source.

Tests used:
[1] = tested on: RPMI-8226; assay: NCI 60 five dose screen; conditions: for 50% growth inhibition (GI50): leukemia cell line RPMI-8226
[2] = tested on: 60 different human tumor cell lines; assay: cells
[3] = tested on: HCT-15 (Colon Cancer); assay: NCI 60 one dose screen; format: cell-based, human
[4] = tested on: SR; assay: NCI 60 five dose screen; conditions: for CC50: read-out: LC50; for 50% growth inhibition (GI50): leukemia cell line SR
[5] = tested on: SF-539; assay: NCI 60 one dose screen; format: cell-based, human; conditions: one dose; CNS Cancer; SF-539
[6] = RPMI-8226 (Leukemia), five dose
[7] = read-out: LC50, RPMI-8226 (Leukemia), five dose

For `C[C@]12CC[C@H]3[C@@H](CC=C4c5sc(-c6ccc(O)cc6)nc5CC[C@@]43C)[C@@H]1CC[C@@H]2O` [III.5, (1S,2R,13R,14S,17S,18S)-7-(4-hydroxyphenyl)-2,18-dimethyl-8-thia-6-azapentacyclo[11.7.0.02,10.05,9.014,18]icosa-5(9),6,10-trien-17-ol], the CC50 ([1]; Homo sapiens, RPMI-8226, read-out: LC50) was greater than 100 µM, the TGI [1, 6] was 2.50E−6 and the GI50 ([2]; 786-0) was 0.423 µM. It also gave a CC50 ([2]; 786-0, read-out: LC50) of 21.2 µM, a GI50 ([2]; A498) of 3.51 µM and a CC50 ([2]; A498, read-out: LC50) greater than 100 µM. It also gave a GI50 ([2]; A549) of 5.95 µM, a CC50 ([2]; A549, read-out: LC50) greater than 100 µM and a GI50 ([2]; ACHN) of 7.55 µM. For the same compound, the CC50 ([2]; ACHN, read-out: LC50) was greater than 100 µM, the GI50 ([2]; BT-549) was 1.14 µM and the CC50 ([2]; BT-549, read-out: LC50) was greater than 100 µM. It also gave a GI50 ([2]; CAKI-1) of 4.12 µM, a CC50 ([2]; CAKI-1, read-out: LC50) greater than 100 µM and a GI50 ([2]; CCRF-CEM) of 2.05 µM. The CC50 ([2]; CCRF-CEM, read-out: LC50) was greater than 100 µM, the GI50 ([2]; COLO 205) was 9.14 µM and the CC50 ([2]; COLO 205, read-out: LC50) was greater than 100 µM. The GI50 ([2]; DU-145) was 9.54 µM, the CC50 ([2]; DU-145, read-out: LC50) was greater than 100 µM and the GI50 ([2]; EKVX) was 7.29 µM. The CC50 ([2]; EKVX, read-out: LC50) was greater than 100 µM, the GI50 ([2]; HCC 2998) was 31.9 µM and the CC50 ([2]; HCC 2998, read-out: LC50) was greater than 100 µM. The GI50 ([2]; HCT-15) was 2.43 µM, the CC50 ([2]; HCT-15, read-out: LC50) was greater than 100 µM and the GI50 ([2]; HCT-116) was 2.37 µM. It also gave a CC50 ([2]; HCT-116, read-out: LC50) greater than 100 µM, a GI50 ([2]; HL-60) of 4.08 µM and a CC50 ([2]; HL-60, read-out: LC50) greater than 100 µM. It also gave a GI50 ([2]; HOP-62) of 5.25 µM, a CC50 ([2]; HOP-62, read-out: LC50) greater than 100 µM and a GI50 ([2]; HT-29) of 3.13 µM. The CC50 ([2]; HT-29, read-out: LC50) was greater than 100 µM, the GI50 ([2]; Hs-578T) was 1.59 µM and the CC50 ([2]; Hs-578T, read-out: LC50) was greater than 100 µM. The GI50 ([2]; IGROV-1) was 11.1 µM, the CC50 ([2]; IGROV-1, read-out: LC50) was greater than 100 µM and the GI50 ([2]; K562) was 3.48 µM. The CC50 ([2]; K562, read-out: LC50) was greater than 100 µM, the GI50 ([2]; KM12) was 7.24 µM and the CC50 ([2]; KM12, read-out: LC50) was greater than 100 µM. For the same compound, the GI50 ([2]; LOX IMVI) was 2.67 µM, the CC50 ([2]; LOX IMVI, read-out: LC50) was greater than 100 µM and the GI50 ([2]; M14) was 2.86 µM. The CC50 ([2]; M14, read-out: LC50) was greater than 100 µM, the GI50 ([2]; MCF7) was 3.34 µM and the CC50 ([2]; MCF7, read-out: LC50) was greater than 100 µM. It also gave a GI50 ([2]; MDA-MB-231) of 6.98 µM, a CC50 ([2]; MDA-MB-231, read-out: LC50) greater than 100 µM and a GI50 ([2]; MDA-MB-435) of 16.4 µM. The CC50 ([2]; MDA-MB-435, read-out: LC50) was greater than 100 µM, the GI50 ([2]; MDA-MB-468) was 5.13 µM and the CC50 ([2]; MDA-MB-468, read-out: LC50) was greater than 100 µM. It also gave a GI50 ([2]; MOLT-4) of 1.93 µM, a CC50 ([2]; MOLT-4, read-out: LC50) greater than 100 µM and a GI50 ([2]; Malme-3M) of 3.76 µM. For the same compound, the CC50 ([2]; Malme-3M, read-out: LC50) was greater than 100 µM, the GI50 ([2]; NCI-H23) was 14 µM and the CC50 ([2]; NCI-H23, read-out: LC50) was greater than 100 µM. The GI50 ([2]; NCI-H226) was 27.4 µM, the CC50 ([2]; NCI-H226, read-out: LC50) was greater than 100 µM and the GI50 ([2]; NCI-H322M) was 31.1 µM. It also gave a CC50 ([2]; NCI-H322M, read-out: LC50) greater than 100 µM, a GI50 ([2]; NCI-H460) of 4.94 µM and a CC50 ([2]; NCI-H460, read-out: LC50) greater than 100 µM. For the same compound, the GI50 ([2]; NCI-H522) was 22.6 µM, the CC50 ([2]; NCI-H522, read-out: LC50) was greater than 100 µM and the GI50 ([2]; NCI/ADR-RES) was 6.77 µM. It also gave a CC50 ([2]; NCI/ADR-RES, read-out: LC50) greater than 100 µM, a GI50 ([2]; OVCAR-3) of 8.67 µM and a CC50 ([2]; OVCAR-3, read-out: LC50) greater than 100 µM. For the same compound, the GI50 ([2]; OVCAR-4) was 7.24 µM, the CC50 ([2]; OVCAR-4, read-out: LC50) was greater than 100 µM and the GI50 ([2]; OVCAR-5) was 13.3 µM. It also gave a CC50 ([2]; OVCAR-5, read-out: LC50) greater than 100 µM, a GI50 ([2]; OVCAR-8) of 40.9 µM and a CC50 ([2]; OVCAR-8, read-out: LC50) greater than 100 µM. It also gave a GI50 ([2]; RXF 393) of 0.377 µM, a CC50 ([2]; RXF 393, read-out: LC50) of 8.58 µM and a GI50 ([2]; SF-268) of 5.32 µM. The CC50 ([2]; SF-268, read-out: LC50) was greater than 100 µM, the GI50 ([2]; SK-MEL-2) was 4.42 µM and the CC50 ([2]; SK-MEL-2, read-out: LC50) was greater than 100 µM. For the same compound, the GI50 ([2]; SK-MEL-5) was 3.15 µM, the CC50 ([2]; SK-MEL-5, read-out: LC50) was 48.5 µM and the GI50 ([2]; SK-MEL-28) was 3.05 µM. It also gave a CC50 ([2]; SK-MEL-28, read-out: LC50) greater than 100 µM, a GI50 ([2]; SK-OV-3) of 19 µM and a CC50 ([2]; SK-OV-3, read-out: LC50) greater than 100 µM. The CC50 ([2]; SN12C, read-out: LC50) was greater than 100 µM, the GI50 ([2]; SNB-19) was 7.95 µM and the CC50 ([2]; SNB-19, read-out: LC50) was greater than 100 µM. For the same compound, the GI50 ([2]; SNB-75) was 1.84 µM, the CC50 ([2]; SNB-75, read-out: LC50) was greater than 100 µM and the GI50 ([2]; SW-620) was 8.4 µM. It also gave a CC50 ([2]; SW-620, read-out: LC50) greater than 100 µM, a GI50 ([2]; T47D) of 10.3 µM and a CC50 ([2]; T47D, read-out: LC50) greater than 100 µM. The GI50 ([2]; TK-10) was greater than 100 µM, the CC50 ([2]; TK-10, read-out: LC50) was greater than 100 µM and the GI50 ([2]; U-251) was 2.23 µM. It also gave a CC50 ([2]; U-251, read-out: LC50) greater than 100 µM, a GI50 ([2]; UACC-62) of 2.43 µM and a CC50 ([2]; UACC-62, read-out: LC50) greater than 100 µM. It also gave a GI50 ([2]; UACC-257) of 11.9 µM, a CC50 ([2]; UACC-257, read-out: LC50) greater than 100 µM and a GI50 ([2]; UO-31) of 2.48 µM. For the same compound, the CC50 ([2]; UO-31, read-out: LC50) was greater than 100 µM, the “Growth Percent” value [3] was 29.48% and the GI50 ([4]; Homo sapiens, SR) was 1.37 µM. The CC50 ([4]; Homo sapiens, SR) was greater than 100 µM, the TGI ([4]; SR (Leukemia), five dose) was 3.38E−5 and the “Growth Percent” value [5] was 8.02%.

`C[C@]12CCc3nc(Nc4ccc(O)cc4)sc3C1=CC[C@@H]1[C@@H]2CC[C@]2(C)C(=O)CC[C@@H]12` [IIa.35] gave a GI50 [1, 6] of 2.35 µM, a TGI [1, 6] of 7.07E−6 and a CC50 [1, 7] greater than 100 µM. For the same compound, the “Growth Percent” value [3] was −67.96%, the GI50 ([4]; SR (Leukemia), five dose) was 2.72 µM and the TGI ([4]; SR (Leukemia), five dose) was greater than 1.00E−4. For the same compound, the CC50 ([4]; SR (Leukemia), five dose) was greater than 100 µM and the “Growth Percent” value [5] was −3.84%.

For `C[C@]12CCc3nc(N)sc3C1=CC[C@@H]1[C@@H]2CC[C@]2(C)C(=NNC(N)=O)CC[C@@H]12` [IVb.1], the GI50 [1, 6] was 0.3 µM, the TGI [1, 6] was 1.37E−6 and the CC50 [1, 7] was greater than 100 µM. The “Growth Percent” value [3] was −47.82%, the GI50 ([4]; SR (Leukemia), five dose) was 1.29 µM and the TGI ([4]; SR (Leukemia), five dose) was 4.33E−6. The CC50 ([4]; SR (Leukemia), five dose) was greater than 100 µM and the “Growth Percent” value [5] was 87.19%.

For “(1S,2R,13R,14S,18S)-7-(2,4-dimethylanilino)-2,18-dimethyl-6-thia-8-azapentacyclo[11.7.0.02,10.05,9.014,18]icosa-5(9),7,10-trien-17-one [IIa.14]”, the GI50 [1, 6] was 2.43 µM, the TGI [1, 6] was 6.25E−6 and the “50% growth inhibition (GI50)” value [1] was “submicromolar”. The CC50 [1, 7] was greater than 100 µM, the “Growth Percent” value [3] was 0.81% and the GI50 ([4]; SR (Leukemia), five dose) was 2.32 µM. For the same compound, the TGI ([4]; SR (Leukemia), five dose) was greater than 1.00E−4, the “50% growth inhibition (GI50)” value [4] was “submicromolar” and the CC50 ([4]; SR (Leukemia), five dose) was greater than 100 µM. The “Growth Percent” value [5] was 8.46%.

In the case of “(1S,2R,13R,14S,18S)-7-(3-fluoroanilino)-2,18-dimethyl-6-thia-8-azapentacyclo[11.7.0.02,10.05,9.014,18]icosa-5(9),7,10-trien-17-one [IIa.8]”, the GI50 [1, 6] is reported as 0.859 µM, the TGI [1, 6] is reported as 3.90E−6 and the “50% growth inhibition (GI50)” value [1] is reported as “submicromolar”. The CC50 [1, 7] was greater than 100 µM, the “Growth Percent” value [3] was 6.88% and the GI50 ([4]; SR (Leukemia), five dose) was 0.859 µM. The “50% growth inhibition (GI50)” value [4] was “submicromolar”, the CC50 ([4]; SR (Leukemia), five dose) was greater than 100 µM and the “Growth Percent” value [5] was −5.93%.
